Patent US5942631A, “Inhibitors of cholesterol esterase” (University Of New Mexico, priority 1998, dated 1999)

Biological target: T1, cholesterol esterase (CE) (Homo sapiens, UniProt P19835)
T1 sequence (P19835 21-753): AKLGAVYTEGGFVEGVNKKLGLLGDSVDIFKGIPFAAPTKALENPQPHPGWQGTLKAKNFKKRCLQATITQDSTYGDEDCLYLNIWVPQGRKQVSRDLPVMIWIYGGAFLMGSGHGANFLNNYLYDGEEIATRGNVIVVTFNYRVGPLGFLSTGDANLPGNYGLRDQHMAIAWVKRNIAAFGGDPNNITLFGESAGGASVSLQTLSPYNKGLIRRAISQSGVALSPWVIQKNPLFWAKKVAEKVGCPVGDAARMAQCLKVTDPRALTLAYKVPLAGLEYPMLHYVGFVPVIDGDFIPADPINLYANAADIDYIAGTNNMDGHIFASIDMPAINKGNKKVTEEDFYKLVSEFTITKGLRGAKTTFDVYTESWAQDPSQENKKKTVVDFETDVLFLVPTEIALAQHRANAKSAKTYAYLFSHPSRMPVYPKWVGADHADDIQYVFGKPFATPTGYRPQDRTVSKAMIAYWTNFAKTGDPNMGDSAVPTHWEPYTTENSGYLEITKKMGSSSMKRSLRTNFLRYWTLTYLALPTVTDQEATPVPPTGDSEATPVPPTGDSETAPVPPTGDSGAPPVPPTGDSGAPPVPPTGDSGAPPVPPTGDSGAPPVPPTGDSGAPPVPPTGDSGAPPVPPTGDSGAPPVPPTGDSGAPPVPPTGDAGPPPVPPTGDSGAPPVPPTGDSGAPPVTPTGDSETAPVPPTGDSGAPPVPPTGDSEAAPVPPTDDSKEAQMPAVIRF
Assay: Kinetic inhibition studies of cholesterol esterase (CE), substrate p-nitrophenylbutyrate, Dixon plots
Type: biochemical
Conditions: for inhibition of CE: kinetic inhibition studies, result in words

| inhibition of CE | Structure (SMILES) | mode of inhibition of CE (1/V v [I] plots intersect above the x-axis, FIG. 6) | Ki (printed as "<<30", inferred because calculated Ki equals [E]/2, read-out: actual Ki for CE (suggested)) |
| --- | --- | --- | --- |
| potent inhibitors of CE | O=c1oc(Cl)ccc1CC1CCCCC1 [Example 2] |  |  |
| potent inhibitors of CE | O=c1oc(Cl)ccc1CCCC1CCCCC1 [Example 4] |  |  |

| Structure (SMILES) | inhibition of CE | mode of inhibition of CE (1/V v [I] plots intersect above the x-axis, FIG. 6) | Ki (printed as "<<30", inferred because calculated Ki equals [E]/2, read-out: actual Ki for CE (suggested)) |
| --- | --- | --- | --- |
| O=c1oc(Cl)ccc1CCC1CCCCC1 [Example 3, 3-(2-cyclohexylethyl)-6-chloropyronle] | potent inhibitors of CE | competitive inhibition | < 30 nM |
